Experimental data reported in article PMC9986241 (Signal Transduction and Targeted Therapy, 2023).
Like-named read-outs stand apart in the source and are kept apart here.

Key:
[1] = system: MAPK signaling pathway (phospho-CRAF, phospho-MEK1/2, phospho-ERK1/2); experiment: Western blotting of MAPK signaling pathway in cells
SK-MEL-28 (BRAF V600E) = experiment: Cell proliferation MTT assay; format: cell-based; settings: Homo sapiens
Experimental: (§1) The synergism and antagonism (CI value) were determined and analyzed using CompuSyn 1.0.
(§2) For cytotoxicity test, normal NHDF (5000 cells/well) and NHEM cell line (3000 cells/well) were planted into 96-well plates. For cell proliferation assay, A375 (1500 cells/well), SK-MEL-28 (3000 cells/well), SK-MEL-2 (4000 cells/well), and HCT116 (1500 cells/well) were planted into 96-well plates, determined concentration of drug was added after culture for 24 h. The viability of the cells was detected within 72 h using MTT solution (5 mg/mL). The absorbance at 570/490 nm was quantified by the use of the microplate reader.

HCT116 (KRAS mut) = experiment: Cell proliferation MTT assay; format: cell-based; settings: Homo sapiens, HCT-116; MTT, 72 h; read-out: IC50
Experimental: as §1, §2

A375 (BRAF V600E) = experiment: Cell proliferation MTT assay; format: cell-based; settings: Homo sapiens
Experimental: as §1, §2

SK-MEL-2 (NRAS mut) = experiment: Cell proliferation MTT assay; format: cell-based; settings: Homo sapiens, SK-MEL-2; MTT, 72 h; read-out: IC50
Experimental: as §1, §2

melanoma PDX = experiment: Patient-derived xenograft (PDX); format: in vivo; settings: oral gavage; erianin, vemurafenib 50 mg/kg once a day; cobimetinib 5 mg/kg twice a week; within 78 days
Experimental: Fig. 7 Erianin exerts antitumor efficacy in melanoma and colorectal cancer in vivo. a Tumor pharmacodynamic assay was performed in tumor-bearing NPG mice (tumor has been passaged from melanoma patient to mice for three generations). The photographs show tumors from melanoma PDX mice treated with vehicle or drugs. b The effect of erianin on the volume of PDX tumors over time (within 78 days) was plotted. Vehicle, erianin (50 mg/kg, once a day), vemurafenib (50 mg/kg, once a day), erianin and vemurafenib combination therapy, cobimetinib (5 mg/kg, twice a week) or vemurafenib and cobimetinib combination therapy (once a day and twice a week, respectively) were administered by oral gavage, n = 8 in each group. Tumor volume was measured once a week. […] Scale bars: 20 μm. One-way ANOVA test. ***p < 0.001. e Antitumor efficacy of erianin with or without immunity using B16F10 cell xenograft in C57BL-6J mouse. f, g Trend of tumor volume over time and tumor weight was measured after treatment on the last day of the study.

SK-MEL-2 (NRAS mut) CDX = experiment: Cell-derived xenograft (CDX); format: in vivo, NOD-SCID mice; settings: 50 mg/kg, oral gavage
Experimental: (§3) Tumor volume (mm^3) = (length × width × height) × 0.52. SK-MEL-2: n = 10; A375 and SK-MEL-28: n = 8; HCT116: n = 9. b The photographs show tumors from CDX mice treated with vehicle, erianin, vemurafenib, or the combination. c The weight of the tumors was quantified and expressed as the treatment groups compared with the vehicle-treated group. […] The tissue lysates were prepared from CDX tumor tissues in each treatment group. […] Each point represents the IOD values of four quantified data from one mouse. Scale bars: 50 μm.
(§4) The animal experiments were performed according to the guidelines approved by the Zhengzhou University Institutional Animal Care and Use Committee. A375 cell line (1 × 10^7 cell/mouse), SK-MEL-28 cell line (5 × 10^6 cell/mouse), SK-MEL-2 cell (5 × 10^6 cell/mouse), and HCT116 cell line (1 × 10^7 cell/mouse) were injected subcutaneously into the NOD-SCID mice (Vital River Labs, Beijing, China). For the melanoma PDX mice model, the tumor was taken after surgical operation and implanted into the NPG (Vital River Labs, Beijing, China) mice under a sterile environment. For the colorectal cancer PDX mice model, NOD-SCID mice were selected as carriers for tumor growth. The measurement of tumor size was performed twice a week using vernier caliper and the calculation of tumor volume was done according to tumor volume (mm^3) = length × width × height × 0.52.

HCT116 (KRAS mut) CDX = experiment: Cell-derived xenograft (CDX); format: in vivo, NOD-SCID mice; settings: 50 mg/kg, oral gavage
Experimental: as §3, §4

A375 (BRAF V600E) CDX = experiment: Cell-derived xenograft (CDX); settings: 50 mg/kg, oral gavage, vs vehicle-treated group
Experimental: as §3, §4

[2] = system: SK-MEL-28 (BRAF V600E) CDX; experiment: Cell-derived xenograft (CDX); settings: 50 mg/kg, oral gavage, vs vehicle-treated group
Experimental: as §3, §4

[3] = SK-MEL-28, MTT, 72 h, read-out: IC50
[4] = A-375, MTT, 72 h, read-out: IC50

Compound | IC50 (SK-MEL-28 (BRAF V600E); [3]) [nM] | IC50 (HCT116 (KRAS mut)) [nM] | IC50 (A375 (BRAF V600E); [4]) [nM] | IC50 (SK-MEL-2 (NRAS mut)) [nM] | also measured
O=C(c1ccc(F)c(F)c1Nc1ccc(I)cc1F)N1CC(O)([C@@H]2CCCCN2)C1 [Cobimetinib] | 2.6 ± 0.4 | 51.3 ± 8.9 | 3.2 ± 1.3 | 119 ± 38.2 | phosphorylation of MEK1/2 ([1]; SK-MEL-2 and HCT116, 24 h): increased phosphorylation of MEK1/2; phosphorylation of ERK1/2 ([1]; both BRAF V600E and RAS mutant cells, 24 h): inhibits phosphorylation of ERK1/2 effectively; tumor volume (melanoma PDX): no differences between erianin and cobimetinib
CNc1ncc2cc(-c3cc(NC(=O)NCCC(C)(C)C)c(F)cc3C)c(C)nc2n1 [LY3009120] | – | – | – | – | kinase activity of CRAF (phosphorylation of CRAF and MEK1/2) ([1]; low dose, 24 h): induced kinase activity of CRAF at a low dose
CCCS(=O)(=O)Nc1ccc(F)c(C(=O)c2c[nH]c3ncc(-c4ccc(Cl)cc4)cc23)c1F [Vemurafenib, reference compound] | 344 ± 36.4 | > 20000 | 314 ± 73.7 | > 40000 | tumor volume and tumor weight (SK-MEL-2 (NRAS mut) CDX): poor effect; tumor volume and tumor weight (HCT116 (KRAS mut) CDX): poor effect; activation of MAPK signaling pathway (CRAF, MEK1/2, ERK1/2) ([1]; SK-MEL-2 and HCT116, 24 h): induced the paradoxical activation of MAPK signaling pathway; tumor volume (A375 (BRAF V600E) CDX): significant decrease; tumor volume [2]: significant decrease; tumor volume (melanoma PDX): did not suppress tumor volume significantly
Cn1cnc2c(F)c(Nc3ccc(Br)cc3F)c(C(=O)NOCCO)cc21 [Binimetinib] | 129 ± 28.3 | 509 ± 145 | 60.9 ± 14.4 | 240 ± 81.2 | –
COC(=O)N[C@@H](C)CNc1nccc(-c2cn(C(C)C)nc2-c2cc(Cl)cc(NS(C)(=O)=O)c2F)n1 [Encorafenib] | 6.5 ± 1.2 | > 2000 | 9.5 ± 3.9 | > 9000 | –
CC(=O)Nc1cccc(-n2c(=O)n(C3CC3)c(=O)c3c(Nc4ccc(I)cc4F)n(C)c(=O)c(C)c32)c1 [Trametinib] | 1.9 ± 0.2 | 22.1 ± 9.2 | 2.2 ± 0.8 | 50.6 ± 1.7 | –
CC(C)(C)c1nc(-c2cccc(NS(=O)(=O)c3c(F)cccc3F)c2F)c(-c2ccnc(N)n2)s1 [Dabrafenib] | – | > 18000 | – | > 60000 | IC50 (SK-MEL-28 (BRAF V600E); SK-MEL-28, 72 h): 41 ± 15.5 nM; IC50 (A375 (BRAF V600E); A-375, 72 h): 36.7 ± 9.7 nM
